Laboratory results reported in patent publication US12680077B2, “Generating populations of human blood and blood vessel progenitors from pluripotent stem cells” (The Board of Trustees of the Leland Stanford Junior …, priority 2020, dated 2026).

Assays:
Format in all cases: cell-based, human
[1] = system: hPSC-derived day-3 trunk artery cells; test: Differentiation of hPSC-derived day-3 trunk artery cells into hemogenic endothelium / HSC-like cells (qPCR, flow cytometry); settings: 24 hours, OSM and LIF withheld together
Description: (§1) FIG. 4: Efficient generation of trunk artery and hemogenic endothelium from hPSCs within 3 and 6 days, respectively. A) Cartoon of the strategy to generate trunk artery, hemogenic endothelium and HSC-like cells. B) Retinoic acid (RA) signaling induces HOXA1-5 genes in hPSC-derived trunk artery cells; day 1 hPSC-derived primitive streak cells were differentiated into trunk artery cells over the course of 48 hours, in the presence or absence of an RA agonist (TTNPB). C) Flow cytometry (left) and qPCR (right) of hPSC-derived trunk artery cells; for the qPCR data, gene expression is normalized for each gene to undifferentiated hPSCs (gene expression levels in hPSCs=1.0); as a negative control, hPSC-derived artery cells (white bar, generated in the absence of RA agonist) is shown. D) hPSC-derived day-3 trunk artery cells were differentiated into hemogenic endothelium for 24 hours in the complete hemogenic endothelium medium (Forskolin, SB505124, OSM and LIF), or in media where either Forskolin was withheld; SB505124 was withheld; or both OSM and LIF were withheld.
FIG. 12: Optimizing the generation of trunk artery, hemogenic endothelium and HSC-like cells from hPSCs. A) Retinoic acid (RA) signaling induces HOXA1-5 genes in hPSC-derived trunk artery cells; day 1 hPSC-derived primitive streak cells were differentiated into trunk artery cells over the course of 48 hours, in the presence or absence of RA agonists (ATRA, AM580 or TTNPB) on day 2 alone (for 24 hours), day 3 alone (for 24 hours) or day 2-3 interval (for 48 hours) B) hPSC-derived trunk artery cells can be generated in defined conditions on a defined extracellular matrix (ECM); hPSCs were plated on Geltrex (an undefined ECM matrix); bulk laminin; or recombinant vitronectin or laminin-511. C) hPSCs were differentiated into day-3 artery cells (without RA agonist) or day-3 trunk artery cells (with RA agonist); and then were further differentiated over the course of 6 further days into day-9 HSC-like cells. […]
(§2) Quantitative PCR. […]

[2] = system: day 6 hPSC-derived hemogenic endothelium; test: Differentiation of day 6 hemogenic endothelium into day 9 HSC-like cells (qPCR, flow cytometry); settings: for expression of GATA1 and CD45RA: SR1 and UM171 applied together, days 6-9; for formation of hPSC-derived HSC-like cells: presence vs absence of both UM171 and SR1, 3 days, flow cytometry for CD45+ CD45RA- on day 9
Description: FIG. 13: Optimizing the generation of, and characterizing, hPSC-derived HSC-like cells. […] B) qPCR was performed during hPSC differentiation into HSC-like cells every 24 hours; gene expression was normalized such that undifferentiated hPSCs=1.0. […] D) Flow cytometry strategy to purify i) CD144^+ CD45^+ CD45RA^− hPSC-derived day-9 HSC-like cells and ii) CD34^+ CD90^+ cord blood HSPCs vs. CD34^+ CD90^− cord blood non-HSCs (expanded for 3 days ex vivo prior to FACS sorting) for transcriptional analysis.
Day 6-9 (HSC-like cell induction, 72 hours [Step 5b]). Day 6 hemogenic endothelium cells were briefly washed (DMEM/F12, Thermo Fisher) and then differentiated towards HSC-like cells in CDM3 media supplemented with Forskolin (10 μM), IL1β (5 ng/mL, R&D Systems), LIF (20 ng/mL), OSM (10 ng/mL), SB505124 (2 μM), SR1 (750 nM, Cellagen Technology) and UM171 (75 nM, ApexBio) for 72 hours. HSC-like cell induction media was refreshed every 24 hours.
Flow cytometry. Undifferentiated and differentiated hPSCs were dissociated by incubation in TrypLE Express (Gibco) for 5 minutes at 37° C. Subsequently, dissociated cells in TrypLE Express were diluted 1:10 in DMEM/F12 and centrifuged (pelleted) at 500 g for 5 minutes. Each cell pellet was resuspended in FACS buffer (PBS+1 mM EDTA [Invitrogen]+2% v/v FBS [Atlanta Bio]+1% Penicillin/Streptomycin [Gibco]) supplemented with fluorescently-conjugated primary antibodies, and antibody staining occurred for 30 minutes on ice protected from light. After staining, cells were washed twice with FACS buffer and resuspended in 200 μL FACS buffer with DAPI (1:10,000, Biolegend) for live/dead discrimination. Samples were run on a Beckman Coulter CytoFlex analyzer (Stanford Stem Cell Institute FACS Core). For data analysis, cells were gated based on forward and side scatter with height and width used for doublet discrimination. Subsequently, live cells that were negative for DAPI were gated for all marker analyses and calculations of population frequency.
Quantitative PCR. Undifferentiated or differentiated hPSCs were lysed in 350 μL of RLT Plus Buffer and RNA was extracted using the RNeasy Plus Mini Kit (Qiagen) according to the manufacturer's protocol. 300 ng of total RNA was reverse transcribed into cDNA for qPCR using the High-Capacity cDNA Reverse Transcription Kit (Applied Biosystems) according to the manufacturer's protocol. qPCR was performed in 384-well format as previously described (Loh et al., 2016), using gene-specific forward and reverse primers on a QuantStudio 5 qPCR machine (Thermo Fisher). Expression of all genes was normalized to the levels of the reference gene YWHAZ.

[3] = system: day 1 hPSC-derived primitive streak cells; test: Differentiation of day 1 primitive streak into trunk artery cells with RA agonists (qPCR, flow cytometry); settings: for HOXA1-HOXA5 expression by day 3: RA agonist for 48 hours (days 2-3), qPCR; for formation of CD144+ CD43+ blood progenitors by day 9: RA agonist on days 2-3, then 6 further days of differentiation
Description: as §1
FIG. 12: Optimizing the generation of trunk artery, hemogenic endothelium and HSC-like cells from hPSCs. A) Retinoic acid (RA) signaling induces HOXA1-5 genes in hPSC-derived trunk artery cells; day 1 hPSC-derived primitive streak cells were differentiated into trunk artery cells over the course of 48 hours, in the presence or absence of RA agonists (ATRA, AM580 or TTNPB) on day 2 alone (for 24 hours), day 3 alone (for 24 hours) or day 2-3 interval (for 48 hours) B) hPSC-derived trunk artery cells can be generated in defined conditions on a defined extracellular matrix (ECM); hPSCs were plated on Geltrex (an undefined ECM matrix); bulk laminin; or recombinant vitronectin or laminin-511. C) hPSCs were differentiated into day-3 artery cells (without RA agonist) or day-3 trunk artery cells (with RA agonist); and then were further differentiated over the course of 6 further days into day-9 HSC-like cells. […] G) qPCR of hPSC differentiation into trunk arteries (day 3) and their conversion into hemogenic endothelium (day 6); qPCR data are normalized such that for each gene, expression levels in undifferentiated hPSCs=1.0.
Day 2 (trunk dorsal lateral mesoderm induction, 24 hours [Step 2b]). Day 1 mid primitive streak cells were briefly washed (DMEM/F12, Thermo Fisher) and then differentiated towards dorsal lateral mesoderm in CDM2 media supplemented with BMP4 (40 ng/mL), GDC-0941 (2.5 μM, Cellagen Technology), Forskolin (10 μM, Tocris), SB-505124 (2 μM, Tocris), VEGF (100 ng/mL, R&D Systems), XAV939 (1 μM, Tocris), AA2P (200 μg/mL) and TTNPB (0.5 nM) for 24 hours (i.e., the same media as dorsal lateral mesoderm induction, with the addition of TTNPB). […]
as §2

[4] = system: day 1 hPSC-derived primitive streak; test: Dorsal lateral mesoderm induction from day 1 primitive streak (qPCR on day 2); settings: day 2 of differentiation, 24 hours
Description: FIG. 1: Efficient generation of human primitive streak and dorsal lateral mesoderm from hPSCs. A) Chronology of artery and vein development in vivo within mouse embryos (top) and in vitro from human pluripotent stem cells (hPSCs; bottom). B) Efficient generation of MIXL1^+ mid primitive streak within 24 hours of hPSC differentiation, as assayed by flow cytometry of a MIXL1-GFP reporter hESC line C) In vivo identification of candidate dorsal lateral mesoderm: from a scRNAseq profile of the E7.0 mouse embryo, Hand1^+ Elf5^− lateral mesoderm was computationally identified and then sub-clustered; marker genes shown superimposed on t-SNE (top) and in violin plots (below [CPM: counts per million]). […]
as §2

For `Cc1cccc(-c2[nH]c(C(C)(C)C)nc2-c2ccc3c(c2)OCO3)n1` [SB505124, 2-[4-(1,3-Benzodioxol-5-yl)-2-(1,1-dimethylethyl)-1H-imidazol-5-yl]-6-methyl-pyridine], the “RUNX1 expression by day 4 upon individual withdrawal of the agent from hemogenic endothelium medium” value (from here on “RUNX1 expression”) [1] was “reduced”.

With `CC(C)n1cnc2c(NCCc3ccc(O)cc3)nc(-c3csc4ccccc34)nc21` [SR1] the “expression of GATA1 and CD45RA” value [2] was “decreased” and the “formation of hPSC-derived HSC-like cells” value [2] was “enhanced”.

For `C/C(=C\c1ccc(C(=O)O)cc1)c1ccc2c(c1)C(C)(C)CCC2(C)C` [TTNPB], the “HOXA1-HOXA5 expression by day 3” value [3] was “enhanced” and the “formation of CD144+ CD43+ blood progenitors by day 9” value [3] was “promote”.

`Cn1nnc(-c2ccc3c(c2)[nH]c2nc(Cc4ccccc4)nc(NC4CCC(N)CC4)c23)n1` (centres unmarked) [UM171] was tested, and the “expression of GATA1 and CD45RA” value [2] was “decreased” and the “formation of hPSC-derived HSC-like cells” value [2] was “enhanced”.

In the case of AM580, the “HOXA1-HOXA5 expression by day 3” value [3] is reported as “enhanced” and the “formation of CD144+ CD43+ blood progenitors by day 9” value [3] is reported as “promote”.

With IL1: inflammatory signal IL1β the “blood formation in vitro” value ([2]; inflammatory signal added days 6-9) was “modestly promoted”.

In the case of LIF: GP130 agonist, the “RUNX1 expression” value [1] is reported as “reduced”.

With VEGF the “expression of SCL, LMO2 and FLI1 (dorsal lateral mesoderm specification)” value [4] was “upregulated”.

B1: BMP: BMP agonist; BMP4 used in the experiments (protein, UniProt P12644 293-408, looked up)
Bone morphogenetic protein 4: SPKHHSQRARKKNKNCRRHSLYVDFSDVGWNDWIVAPPGYQAFYCHGDCPFPLADHLNSTNHAIVQTLVNSVNSSIPKACCVPTELSAISMLYLDEYDKVVLKNYQEMVVEGCGCR
In the case of B1, the “expression of SCL, LMO2 and FLI1 (dorsal lateral mesoderm specification)” value [4] is reported as “upregulated”.

B2: OSM: GP130 agonist (protein, UniProt P13725 26-221, looked up)
Oncostatin-M: AAIGSCSKEYRVLLGQLQKQTDLMQDTSRLLDPYIRIQGLDVPKLREHCRERPGAFPSEETLRGLGRRGFLQTLNATLGCVLHRLADLEQRLPKAQDLERSGLNIEDLEKLQMARPNILGLRNNIYCMAQLLDNSDTAEPTKAGRGASQPPTPTPASDAFQRKLEGCRFLHGYHRFMHSVGRVFSKWGESPNRSRR
With B2 the “RUNX1 expression” value [1] was “reduced”.
